Assay results as given in ChEMBL document CHEMBL3797079, “Synergistic reduction of HIV-1 infectivity by 5-azacytidine and inhibitors of ribonucleotide reductase” (Bioorg Med Chem, 2016).
Active and inactive are the calls of the source. The rule behind the calls is not given here.

Columns and labels:
U373-MAGI [1] = assay: Effect on dRGU-TP level in human U373-MAGI cells at 50 nM preincubated for 2 hrs followed by 5-aza-dC addition measured after 4 hrs by LC-MS/MS analysis; assay type: functional, cell-based
U373-MAGI [2] = assay: Reduction in dRGU-TP level in human U373-MAGI cells at 50 nM preincubated for 2 hrs followed by 5-aza-C addition measured after 4 hrs by LC-MS/MS analysis; assay type: functional, cell-based
U373-MAGI [3] = assay: Reduction in dCTP level in human U373-MAGI cells at 50 nM preincubated for 2 hrs followed by 5-aza-dC addition measured after 4 hrs by LC-MS/MS analysis relative to 5-aza-dC; assay type: functional, cell-based
U373-MAGI [4] = assay: Increase in 5-aza-dCTP/dCTP ratio in human U373-MAGI cells at 200 nM preincubated for 2 hrs followed by 5-aza-C addition measured after 4 hrs by LC-MS/MS analysis relative to 5-aza-C; assay type: functional, cell-based
U373-MAGI [5] = assay: Reduction in dATP level in human U373-MAGI cells at 200 nM after 6 hrs by LC-MS/MS analysis; assay type: functional, cell-based
U373-MAGI [6] = assay: Effect on 5-aza-dCTP level in human U373-MAGI cells at 50 nM preincubated for 2 hrs followed by 5-aza-dC addition measured after 4 hrs by LC-MS/MS analysis; assay type: functional, cell-based
U373-MAGI [7] = assay: Reduction in dTTP level in human U373-MAGI cells at 200 nM after 6 hrs by LC-MS/MS analysis; assay type: functional, cell-based
U373-MAGI [8] = assay: Reduction in 5-aza-dCTP level in human U373-MAGI cells at 200 nM preincubated for 2 hrs followed by 5-aza-C addition measured after 4 hrs by LC-MS/MS analysis; assay type: functional, cell-based
U373-MAGI [9] = assay: Reduction in dCTP level in human U373-MAGI cells at 50 nM after 6 hrs by LC-MS/MS analysis; assay type: functional, cell-based
U373-MAGI [10] = assay: Effect on dRGU-TP level in human U373-MAGI cells at 200 nM preincubated for 2 hrs followed by 5-aza-dC addition measured after 4 hrs by LC-MS/MS analysis; assay type: functional, cell-based
U373-MAGI [11] = assay: Increase in 5-aza-dCTP/dCTP ratio in human U373-MAGI cells at 50 nM preincubated for 2 hrs followed by 5-aza-dC addition measured after 4 hrs by LC-MS/MS analysis relative to 5-aza-dC; assay type: functional, cell-based
[12] = system: Human immunodeficiency virus 1; assay: Antiviral activity against VSV-G pseudotyped HIV-1 NL4-3 infected in human U373-MAGI cells assessed as reduction in viral infectivity at 50 nM incubated for 4 hrs prior to viral infection measured at 72 hrs post infection by flow cytometric analysis; assay type: functional, organism-based
[13] = system: Human immunodeficiency virus 1; assay: Potentiation of 5-Aza-C-induced antiviral activity against VSV-G pseudotyped HIV-1 NL4-3 infected in human U373-MAGI cells assessed as decrease in 5-Aza-C EC50 at 50 nM preincubated for 2 hrs followed by 5-Aza-C addition for 2 hrs and subsequent viral infection measured at 72 hrs post infection by flow cytometric analysis relative to control; assay type: functional
U373-MAGI [14] = assay: Reduction in 5-aza-dCTP level in human U373-MAGI cells at 50 nM preincubated for 2 hrs followed by 5-aza-C addition measured after 4 hrs by LC-MS/MS analysis; assay type: functional, cell-based
U373-MAGI [15] = assay: Reduction in dCTP level in human U373-MAGI cells at 50 nM preincubated for 2 hrs followed by 5-aza-C addition measured after 4 hrs by LC-MS/MS analysis; assay type: functional, cell-based
U373-MAGI [16] = assay: Reduction in dGTP level in human U373-MAGI cells at 50 nM after 6 hrs by LC-MS/MS analysis; assay type: functional, cell-based
U373-MAGI [17] = assay: Increase in 5-aza-dCTP/dCTP ratio in human U373-MAGI cells at 200 nM preincubated for 2 hrs followed by 5-aza-dC addition measured after 4 hrs by LC-MS/MS analysis relative to 5-aza-dC; assay type: functional, cell-based
U373-MAGI [18] = assay: Effect on 5-aza-dCTP level in human U373-MAGI cells at 200 nM preincubated for 2 hrs followed by 5-aza-dC addition measured after 4 hrs by LC-MS/MS analysis; assay type: functional, cell-based
U373-MAGI [19] = assay: Reduction in dTTP level in human U373-MAGI cells at 50 nM after 6 hrs by LC-MS/MS analysis; assay type: functional, cell-based
[20] = Cytotoxicity against human U373-MAGI cells at 50 nM measured at 72 hrs by Celltiter-Glo luminescent cell viability assay; assay type: cell-based; conditions: 0.05 µM
[21] = Reduction in dATP level in human U373-MAGI cells at 50 nM after 6 hrs by LC-MS/MS analysis; assay type: functional; design: scale not given: the % may be the effect or the level left
U373-MAGI [22] = assay: Reduction in dCTP level in human U373-MAGI cells at 200 nM preincubated for 2 hrs followed by 5-aza-dC addition measured after 4 hrs by LC-MS/MS analysis relative to 5-aza-dC; assay type: functional, cell-based
U373-MAGI [23] = assay: Reduction in dCTP level in human U373-MAGI cells at 200 nM after 6 hrs by LC-MS/MS analysis; assay type: functional, cell-based
U373-MAGI [24] = assay: Reduction in dGTP level in human U373-MAGI cells at 200 nM after 6 hrs by LC-MS/MS analysis; assay type: functional, cell-based
U373-MAGI [25] = assay: Reduction in dCTP level in human U373-MAGI cells at 200 nM preincubated for 2 hrs followed by 5-aza-C addition measured after 4 hrs by LC-MS/MS analysis relative to 5-aza-C; assay type: functional, cell-based
U373-MAGI [26] = assay: Increase in 5-aza-dCTP/dCTP ratio in human U373-MAGI cells at 50 nM preincubated for 2 hrs followed by 5-aza-C addition measured after 4 hrs by LC-MS/MS analysis relative to 5-aza-C; assay type: functional, cell-based
U373-MAGI [27] = assay: Reduction in dRGU-TP level in human U373-MAGI cells at 200 nM preincubated for 2 hrs followed by 5-aza-C addition measured after 4 hrs by LC-MS/MS analysis; assay type: functional, cell-based

Nc1nc(Cl)nc2c1ncn2[C@@H]1O[C@H](CO)[C@@H](O)[C@@H]1F [CLOFARABINE]
Activity (U373-MAGI [1]): inactive
Activity (U373-MAGI [2]): inactive
Activity (U373-MAGI [3]): Active
Activity (U373-MAGI [4]): inactive
Activity (U373-MAGI [5]): Active
Activity (U373-MAGI [6]): inactive
Activity (U373-MAGI [7]): inactive
Activity (U373-MAGI [8]): Active
Activity (U373-MAGI [9]): inactive
Activity (U373-MAGI [10]): inactive
Activity (U373-MAGI [11]): Active
Activity [12]: Active
fold change (FC) [13]: 2.5
Activity (U373-MAGI [14]): inactive
Activity (U373-MAGI [15]): Active
Activity (U373-MAGI [16]): inactive
Activity (U373-MAGI [17]): Active
Activity (U373-MAGI [18]): inactive
Activity (U373-MAGI [19]): inactive
Activity [20]: Non-toxic
Activity [21]: 30%
Activity (U373-MAGI [22]): Active
Activity (U373-MAGI [23]): Active
Activity (U373-MAGI [24]): Active
Activity (U373-MAGI [25]): Active
Activity (U373-MAGI [26]): inactive
Activity (U373-MAGI [27]): Active
